Patent US6589751B2, “Immonological detection of the homocystamide adduct and a thiolactone immunoassay for endogeneous homocysteine” (MCW Research Foundation, priority 1997, dated 2003)
Entries after “also recorded” stand apart in the source; their conditions may differ.

Experiments:
Assay type in all cases: binding, rabbit
[1] = tested on: purified polyclonal antibody directed against the homocystamide adduct; test: competition ELISA with purified polyclonal antibody (1:300), solid phase homocystamide-LDL adduct; conditions: for IC50 values, D,L- versus L-homocystamide-BSA compared: competitor 0-500 μg/ml, P>0.05, data not shown
Protocol: Solid phase ELISA techniques for antibody characterization. Solid phase indirect antibody capture techniques were used in all assays and have been described elsewhere (10, 34). Briefly, 96-well plates were initially coated with homocystamide-LDL adduct (100 μl, 10 μg/ml). For antibody titer determinations, the antisera were diluted at concentrations as indicated in the “Results” section. We defined antibody titers as the inverse of the greatest serum dilution in which a significant difference (p<0.05) between the percentage antibody bound from the antiserum and the pre-immune serum was observed. Immunoglobulin classes were determined using goat-anti-rabbit-μ-chain-specific, -heavy chain specific, and -heavy and light chain specific secondary antibodies that were linked to horseradish peroxidase. In order to determine antibody specificity, competition experiments were employed, using a limiting dilution (1:300) of purified antibody. Horseradish peroxidase-labeled goat-anti rabbit (heavy and light chain-specific) was used as a […], and the reaction was quenched by the addition of H2SO4 (100 μl, 1.8 M). The absorbance was measured at 450 nm in a 96-well plate reader.
Purification of antiserum. Polyclonal rabbit-anti-homocystamide antiserum was obtained following the 4th immunization of New Zealand White rabbits with homologous homocystamide-LDL adduct (0.5 mg in Freund's adjuvant) as described previously (34). A saturated solution of ammonium sulfate was added dropwise to the antiserum while stirring until the solution was 25% saturated with ammonium sulfate. This mixture was incubated overnight at 4° C. The mixture was centrifuged, and pellet was discarded. Ammonium sulfate was added to the supernatant while stirring until the final concentration of the solution was 50% ammonium sulfate. This mixture was incubated overnight at 4° C. The mixture was centrifuged, and the supernatant was discarded. The pellet was brought up in and dialyzed against Tris (10 mM, pH 7.5). […]

[2] = tested on: antiserum to homocystamide-LDL adduct; test: competition ELISA with antiserum (1:700), solid phase homocystamide-LDL adduct; conditions: competitor against solid phase homocystamide-LDL adduct
Protocol: Antiserum obtained as described in FIG. 1 was added to Millipore 96-well plates containing pre-adsorbed homocystamide-LDL adduct (100 μl, 10 μg/ml) at a limiting dilution (1:700) in the indicated concentrations of competitors (●, homocystamide-LDL adduct, ∘, native LDL, □, acetylated LDL, ▴, methylated LDL, ▪, methylated LDL treated with homocysteine thiolactone). Following a 12 hour incubation, antibody bound was quantified as described in FIG. 2. […] This experiment is representative of 3 independent experiments. (n=3 for each data point. Data points are the mean±SEM).
Antiserum obtained as described in FIG. 1 was added to Millipore 96-well plates containing pre-adsorbed homocystamide-LDL adduct (100 μl, 10 μg/ml) at a limiting dilution (1:700) in the indicated concentrations of competitors (●, Cu^2+-oxidized homocystamide-LDL adduct, ▪, Cu^2+-oxidized LDL, ▴, homocysteine). Following a 12 hour incubation, antibody bound was quantified as described in FIG. 1. […] This experiment is representative of 3 independent experiments. (n=3 for each data point. Data points are the mean±SEM).
Antiserum obtained as described in FIG. 1 was added to Millipore 96-well plates containing pre-adsorbed homocystamide-LDL adduct (100 μl, 10 μg/ml) at a limiting dilution (1:700) in the indicated concentrations of competitors (▴, ●, ▪, homocystamide-LDL, -HDL, and -lipoprotein-deficient serum proteins isolated from homocysteine thiolactone-treated plasma, and freshly drawn plasma without homocysteine thiolactone treatment, Δ). Following a 12 hour incubation, antibody bound following a 2-hour incubation, antibody bound was quantified as described in FIG. 1 using horseradish peroxidase-linked goat-anti-rabbit IgG (heavy and light chains). […] (n=4 for each data point. Data points are the mean±SEM). […] (This experiment is representative of 3 independent experiments. Data points are the mean of duplicate measurements.)
Briefly, 96-well plates were initially coated with homocystamide-LDL adduct (100 μl, 10 μg/ml). […] Immunoglobulin classes were determined using goat-anti-rabbit-μ-chain-specific, -heavy chain specific, and -heavy and light chain specific secondary antibodies that were linked to horseradish peroxidase. In order to determine antibody specificity, competition experiments were employed, using a limiting dilution (1:300) of purified antibody. Horseradish peroxidase-labeled goat-anti rabbit (heavy and light chain-specific) was used as a substrate, and the reaction was quenched by the addition of H2SO4 (100 μl, 1.8 M). The absorbance was measured at 450 nm in a 96-well plate reader.
Homocysteine thiolactone-treated LDL (10 μg/ml) was coated onto 96-well plates.

[3] = tested on: antiserum to homocystamide-LDL adduct; test: solid phase ELISA serum dilution curve on homocystamide adducts of other proteins; conditions: protein coated on solid phase
Protocol: Solid phase ELISA techniques for antibody characterization. Solid phase indirect antibody capture techniques were used in all assays and have been described elsewhere (10, 34). Briefly, 96-well plates were initially coated with homocystamide-LDL adduct (100 μl, 10 μg/ml). For antibody titer determinations, the antisera were diluted at concentrations as indicated in the “Results” section. We defined antibody titers as the inverse of the greatest serum dilution in which a significant difference (p<0.05) between the percentage antibody bound from the antiserum and the pre-immune serum was observed. Immunoglobulin classes were determined using goat-anti-rabbit-μ-chain-specific, -heavy chain specific, and -heavy and light chain specific secondary antibodies that were linked to horseradish peroxidase. In order to determine antibody specificity, competition experiments were employed, using a limiting dilution (1:300) of purified antibody. […] The absorbance was measured at 450 nm in a 96-well plate reader.
We sought to determine whether or not homocystamide adducts of other proteins could also be used in order to measure antibody titers. […] This curve resembled the serum dilution curve obtained in FIG. 4, as the antiserum recognized both homocystamide-BSA and homocystamide-hemoglogin adduct, indicated by antiserum dilution-dependent increase in the absorbance at 450 nm.

[4] = biological target: purified polyclonal anti-homocystamide adduct antibody; test: competition ELISA with purified polyclonal antibody (1:400), plates coated with homocystamide-BSA adduct
Protocol: Microtiter plate preparation. BSA (10 mg/ml in 1M borate, pH 8.4) was incubated for 6 hours at 25° C. in the presence of homocysteine thiolactone (50 mM). Following incubation, excess homocysteine thiolactone was removed by passing the sample down a column pre-equilibrated with NaCO3 (100 mM, pH 9.6). Homocystamide-BSA adduct was diluted to 5 μg/ml in NaCO3 (100 mM, pH 9.6), and 200 μl/well was added to polystyrene microtiter plates (11). These plates were incubated overnight at 4° C., rinsed in PBS, and either used immediately or covered and stored in PBS for future use.
Preparation of a standard curve. In order to prepare a standard curve of known homocysteine concentrations, the indicated concentrations of homocysteine were incubated in the presence of HCl (6N) and heated at 60° C. for 2 hours. […] These solutions were used in a competitive antibody binding assays in parallel with “test solutions” that were analyzed for homocysteine concentrations.
Immunoassay. […] The reactions were quenched after 30 minutes by the addition of H2SO4 (1.8N) and read at 450 nm. […]
Determination of antibody specificity. Antibody specificity for homocystamide-BSA adduct was determined. […] Results of antibody binding are expressed as B/B0, in which B is the % antibody binding in the presence of competitor, and B0 is the % antibody binding in the absence of competitor. […]

Row | IC50 values, D,L- versus L-homocystamide-BSA compared [1] | Molecule | competition for binding to the antiserum (dose-dependent decrease in %B/B0) [2] | also measured
1 | not significantly different | L-homocystamide-BSA: BSA incubated with L-homocysteine thiolactone | – | –
2 | – | N[C@@H](CCSSCC[C@H](N)C(=O)O)C(=O)O [homocystine] | neither BSA nor homocysteine disulfide (homocystine) were recognized; also recorded: Neither homocysteine, homocystine (homocysteine disulfide), nor Cu^2+-oxidized LDL competed for binding | competition / recognition by purified polyclonal antibody ([1]; purified polyclonal antibody 1:300, solid phase homocystamide-LDL): much less affinity than protein-homocystamide adducts; also recorded: recognized, however with much lower affinity
3 | – | N[C@@H](CCS)C(=O)O [homocysteine] | Neither homocysteine, homocystine (homocysteine disulfide), nor Cu^2+-oxidized LDL competed for binding | competition for binding to the antiserum (dose-dependent decrease in %B/B0) ([2]; listed as free homocysteine): did not compete for binding
4 | – | homocystamide-BSA adduct: BSA treated with homocysteine thiolactone; printed as BSA in the IC50 sentence of b114 | – | recognition by the antiserum (dilution-dependent increase in absorbance at 450 nm) [3]: recognized; IC50, inhibition of antibody binding (B/B0) [4]: approximately 200 μg/ml
5 | not significantly different | D,L-homocystamide-BSA: BSA incubated with D,L Homocysteine thiolactone | – | –
